Results taken from BindingDB's records for doi:10.1021/bi990174x (University of Queensland, 1999).
pKi: −log10 of the molar value.

Biological target: T1, Dimer of Gag-Pol polyprotein [501-599,Q508K,L534I,L564I,C568A,C596A] (Human immunodeficiency virus 1, UniProt P03367, C568A/C596A/L534I/L564I/Q508K)
T1 construct: 501-599
Assay: Protease Inhibition Assay
Conditions: pH 6.5; 37 °C

For `CCC(=O)N[C@H](C(=O)N[C@@H](Cc1ccc(O)cc1)[C@H](O)CN[C@H]1Cc2ccc(cc2)OCCCNC(=O)[C@H](C(C)CC)NC1=O)C(C)C` (stereo partly drawn) [(2S)-N-[(2S,3R)-4-{[(8S,11S)-8-[(2S)-butan-2-yl]-7,10-dioxo-2-oxa-6,9-diazabicyclo[11.2.2]heptadeca-1(15),13,16-trien-11-yl]amino}-3-hydroxy-1-(4-hydroxyphenyl)butan-2-yl]-3-methyl-2-propanamidobutanamide], the pKi was 8.52.
